Laboratory results: patent US20250051345A1, “PYRIDINE-3-CARBOXYLATE COMPOUNDS AS CAV1.2 ACTIVATORS” (Novartis AG, priority 2021, published 2025)

Assays:
human Cav1.2 [1] = biological target: T1, human Cav1.2 (Homo sapiens (Human), UniProt Q13936); assay: QPatch channel biophysics assay (V1/2 voltage shift, tau of inactivation) in the Cav1.2-HEK293 (AUX) cell line; format: cell-based
Description: (§1) Clonal isolation was achieved under Neomycin selection.
(§2) Each experimental run uses 1.5 mL of cells.
(§3) The protocol had eight liquid periods. […] The protocol had four liquid periods.

human Cav1.2 [2] = biological target: T1, human Cav1.2; assay: Sophion QPatch dose-response assay, whole-cell voltage clamp of barium currents in the Cav1.2-HEK293 (AUX) cell line; format: cell-based; settings: for QPatch Emax: maximal fold change of peak inward current
Description: as §1, §2, §3

[3] = Compound exposure in brain (cerebellum) and blood of wild-type mice; format: in vivo, mouse; settings: C57BL/6J male mice, i.p., one hour after administration
Excerpt: (§4) Compound administration and brain tissue collection.
Quantification of compound exposure.

cFos mRNA = cFos mRNA induction in cortex of wild-type mice (PK-PD); format: in vivo, mouse; settings: 3 mg/kg ip, one hour after administration
Description: as §4
Quantification of cFos mRNA induction. Tissue homogenization was performed using TissueLyser system for 96 well plates (Qiagen). First, frozen cortical samples were thawed, removed from RNAlater, and placed into TissueLyser tubes along with Buffer RLT containing 0.5% Reagent DX and one 5 mm TissueLyser metal bead. The TissueLyser tubes were loaded into a TissueLyser II tissue homogenizer for 3 rounds of homogenization, with each round lasting 5 minutes at 30 Hz bead-beating frequency. Total RNA was purified from the homogenate using RNeasy 96 Plus kit (Qiagen), RNA concentration and A260/A280 ratio were quantified via the Nanodrop (ThermoFisher), and all samples were normalized to 100 ng/μl concentration. […]
Quantitative PCR was performed on the cDNA samples using Quantitect Multiplex RT-PCR kit (Qiagen) in a 384-well assay format. […] On the ViiA7 Real-Time PCR system (ThermoFisher), the samples were heated to 95° C. for 15 minutes then cycled between 94° C. for 45 seconds and 60° C. for 45 seconds for 45 cycles. cFos Ct values were exported, normalized to GAPDH Ct values, and converted to relative fold change in expression using the delta-delta Ct relative quantification method. cFos fold changes between compound treatments and vehicle were analyzed by one-way ANOVA, followed by Tukey's post-hoc comparisons.

[4] = shift of half-way channel activation voltage V1/2
[5] = 6-point dose response, 10 determinations per concentration, n = 1 unless stated
[6] = comparative examples, single enantiomers of reported racemates

T1 sequence (Q13936 whole entry): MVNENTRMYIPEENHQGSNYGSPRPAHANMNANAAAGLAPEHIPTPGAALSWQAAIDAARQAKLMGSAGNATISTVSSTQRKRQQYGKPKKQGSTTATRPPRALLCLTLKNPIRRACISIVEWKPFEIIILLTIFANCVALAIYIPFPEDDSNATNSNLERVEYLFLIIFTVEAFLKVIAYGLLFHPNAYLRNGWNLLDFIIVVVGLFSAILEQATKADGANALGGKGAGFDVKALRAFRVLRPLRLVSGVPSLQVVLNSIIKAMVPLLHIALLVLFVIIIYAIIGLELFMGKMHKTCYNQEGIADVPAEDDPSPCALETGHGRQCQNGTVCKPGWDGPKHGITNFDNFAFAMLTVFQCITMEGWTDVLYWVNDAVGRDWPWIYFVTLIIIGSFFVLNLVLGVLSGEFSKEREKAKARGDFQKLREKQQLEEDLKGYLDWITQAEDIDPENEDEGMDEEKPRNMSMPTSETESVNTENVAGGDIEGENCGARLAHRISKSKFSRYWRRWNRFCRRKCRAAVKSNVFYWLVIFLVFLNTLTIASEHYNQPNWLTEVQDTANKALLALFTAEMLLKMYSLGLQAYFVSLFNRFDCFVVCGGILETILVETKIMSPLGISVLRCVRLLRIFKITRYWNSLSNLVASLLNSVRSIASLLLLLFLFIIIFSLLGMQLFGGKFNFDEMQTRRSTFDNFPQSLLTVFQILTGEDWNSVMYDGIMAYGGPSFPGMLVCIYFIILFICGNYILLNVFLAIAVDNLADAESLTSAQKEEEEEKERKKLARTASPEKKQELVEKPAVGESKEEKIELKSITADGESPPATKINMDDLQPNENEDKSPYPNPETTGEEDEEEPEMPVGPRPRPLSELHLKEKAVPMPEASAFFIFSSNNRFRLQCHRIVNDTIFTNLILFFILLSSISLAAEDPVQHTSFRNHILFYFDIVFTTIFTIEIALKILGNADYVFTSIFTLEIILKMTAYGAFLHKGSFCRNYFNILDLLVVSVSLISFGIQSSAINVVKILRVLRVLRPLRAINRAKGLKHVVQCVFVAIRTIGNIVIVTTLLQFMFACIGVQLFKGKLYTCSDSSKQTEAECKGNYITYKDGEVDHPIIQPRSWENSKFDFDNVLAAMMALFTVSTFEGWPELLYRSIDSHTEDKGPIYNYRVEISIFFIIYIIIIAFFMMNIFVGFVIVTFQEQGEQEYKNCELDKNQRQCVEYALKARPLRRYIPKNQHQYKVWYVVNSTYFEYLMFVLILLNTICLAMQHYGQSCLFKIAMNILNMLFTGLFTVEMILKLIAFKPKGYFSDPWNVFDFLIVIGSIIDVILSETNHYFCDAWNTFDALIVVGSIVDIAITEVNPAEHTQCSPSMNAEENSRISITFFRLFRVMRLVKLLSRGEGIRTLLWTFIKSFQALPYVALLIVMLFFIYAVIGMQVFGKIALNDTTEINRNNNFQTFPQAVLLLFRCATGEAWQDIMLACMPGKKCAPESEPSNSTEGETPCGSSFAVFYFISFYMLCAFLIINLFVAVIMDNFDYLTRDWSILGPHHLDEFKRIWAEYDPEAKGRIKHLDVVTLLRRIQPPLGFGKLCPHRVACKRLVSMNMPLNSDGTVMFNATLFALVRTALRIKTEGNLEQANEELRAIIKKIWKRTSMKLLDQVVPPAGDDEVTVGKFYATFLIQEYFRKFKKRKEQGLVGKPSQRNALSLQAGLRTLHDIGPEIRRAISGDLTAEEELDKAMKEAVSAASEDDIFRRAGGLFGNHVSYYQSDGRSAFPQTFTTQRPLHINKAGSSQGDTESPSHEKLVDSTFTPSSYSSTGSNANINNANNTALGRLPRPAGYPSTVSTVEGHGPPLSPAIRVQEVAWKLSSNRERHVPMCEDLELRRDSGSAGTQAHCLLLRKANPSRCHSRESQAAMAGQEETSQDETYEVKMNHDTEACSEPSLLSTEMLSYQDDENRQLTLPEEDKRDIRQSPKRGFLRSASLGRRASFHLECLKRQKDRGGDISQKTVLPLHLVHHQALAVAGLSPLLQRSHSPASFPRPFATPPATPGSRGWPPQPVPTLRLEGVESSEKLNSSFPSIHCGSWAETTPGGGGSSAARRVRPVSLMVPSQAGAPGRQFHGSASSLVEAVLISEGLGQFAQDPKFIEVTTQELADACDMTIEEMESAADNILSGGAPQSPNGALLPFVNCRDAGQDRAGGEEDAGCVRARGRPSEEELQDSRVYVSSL

Compound	Biophysics voltage shift (human Cav1.2 [1]; [4])	EC50 (human Cav1.2 [2]; [5])	QPatch Emax (human Cav1.2 [2])	Biophysics voltage shift (human Cav1.2 [1]; comparative examples)	EC50 (human Cav1.2 [2]; [6])	QPatch Emax (human Cav1.2 [2]; comparative examples)	other results
COC(=O)C1=C(C(F)F)NC2=C(C(=O)OC2)[C@H]1c1cncc(F)c1[C@@H](C)F (single isomer, unassigned) [Example 6, methyl 2-(difluoromethyl)-4-(5-fluoro-4-(1-fluoroethyl)pyridin-3-yl)-5-oxo-1,4,5,7-tetrahydrofuro [3,4-b]pyridine-3-carboxylate]	−5.6 mV	0.25 µM	2.5	–	–	–	–
COC(=O)C1=C(C)NC2=C(C(=O)OC2)[C@H]1c1cncc(F)c1[C@@H](C)F (single isomer, unassigned) [Example 1, methyl(S)-4-(5-fluoro-4-((R)-1-fluoroethyl)pyridin-3-yl)-2-methyl-5-oxo-1,4,5,7-tetrahydrofuro [3,4-b]pyridine-3-carboxylate or methyl(S)-4-(5-fluoro-4-((S)-1-fluoroethyl)pyridin-3-yl)-2-methyl-5-oxo-1,4,5,7-tetrahydrofuro [3,4-b]pyridine-3-carboxylate]	−6.6 mV	0.22 µM	3.3	–	–	–	Brain: blood Ratio [3]: 0.2; %↑ cFOS mRNA cortex (cFos mRNA): 174%
COC(=O)C1=C(C)NC2=C(C(=O)OC2)C1c1ccccc1C(F)(F)F (stereo not shown) [Comparative Example 5]	–	–	–	−4.3 mV	0.36 µM	1.4	–
CCOC(=O)C1=C(C)NC2=C(C(=O)OC2)[C@H]1c1ccccc1OCc1ccccc1 [Comparative Example 2, RS30124]	–	–	–	−15.4 mV	0.45 µM	4.3	–
COC(=O)C1=C(C)NC2=C(C(=O)OC2)C1c1ccccc1OC(F)F (stereo not shown) [Comparative Example 6]	–	–	–	−7.1 mV	0.51 µM	1.7	–
CCOC(=O)C1=C(C)NC2=C(C(=O)OC2)C1c1ccccc1C(F)(F)F (stereo not shown) [Comparative Example 7]	–	–	–	–	0.93 µM	1.9	–
COC(=O)C1=C(CF)NC2=C(C(=O)OC2)[C@H]1c1cncc(F)c1[C@@H](C)F [Example 2, methyl (R)-4-(5-fluoro-4-((R)-1-fluoroethyl)pyridin-3-yl)-2-(fluoromethyl)-5-oxo-1,4,5,7-tetrahydrofuro [3,4-b]pyridine-3-carboxylate]	−5.9 mV	0.061 µM	2.2	–	–	–	Kp at 1 h ([3]; mouse, brain (cerebellum) / blood, ip, 3 mg/kg, read-out: Brain: blood Ratio): 1.5; %↑ cFOS mRNA cortex (cFos mRNA): 384%; activity in the Sophion QPatch assay relative to the enantiomer (human Cav1.2 [2]; comparison of stereoisomers): higher activity than its corresponding enantiomer
COC(=O)C1=C(C)NC2=C(C(=O)OC2)C1c1ccccc1C (stereo not shown) [Comparative Example 4]	–	–	–	–	2.24 µM	1.4	–
CCOC(=O)C1=C(C)NC2=C(C(=O)OC2)[C@H]1c1ccccc1OC(F)F [Comparative Example 3, CGP028392]	–	–	–	−6.7 mV	0.28 µM	2.2	–
COC(=O)C1=C(C)NC(C)=C([N+](=O)[O-])[C@H]1c1ccccc1C(F)(F)F [Comparative Example 1, BayK8644]	–	–	–	–	–	3.9	–
